Series [1] concerns the target Serine/threonine-protein kinase ULK2 (Homo sapiens) (UniProt Q8IYT8). The series is described as follows: Inhibition of ULK2 in human HeLa cells lysate at 2 uM pre incubated for 15 mins followed by ADP acyl phosphate probe addition and measured after 10 mins by LC-MS/MS analysis relative to control. The format is subcellular. The conditions noted are these: time 25.0 min.

A short description of series [2]: Plasma concentration in C57Bl/6 mouse at 50 mg/kg, ip administered for 13 day and measured 8 hr post last dose by LC-MS/MS analysis. The format is ADME, organism-based.
Series [3] concerns the target T1, EKC/KEOPS complex subunit TP53RK (Homo sapiens) (UniProt Q96S44).
T1 sequence (whole entry): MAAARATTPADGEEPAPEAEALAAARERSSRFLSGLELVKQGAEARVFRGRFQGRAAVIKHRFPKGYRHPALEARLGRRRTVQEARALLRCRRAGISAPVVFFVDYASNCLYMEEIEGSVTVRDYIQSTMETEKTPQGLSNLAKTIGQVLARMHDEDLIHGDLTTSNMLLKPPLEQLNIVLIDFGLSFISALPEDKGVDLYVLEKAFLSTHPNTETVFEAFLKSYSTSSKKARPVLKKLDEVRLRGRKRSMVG
Briefly: Inhibition of PRPK in human HeLa cells lysate at 10 uM pre incubated for 15 mins followed by ADP acyl phosphate probe addition and measured after 10 mins by LC-MS/MS analysis relative to control. The format is subcellular. The conditions noted are these: time 25.0 min.

Series [4] has as its target T2, Serine/threonine-protein kinase Sgk3 (Homo sapiens) (UniProt Q96BR1).
T2 sequence (whole entry): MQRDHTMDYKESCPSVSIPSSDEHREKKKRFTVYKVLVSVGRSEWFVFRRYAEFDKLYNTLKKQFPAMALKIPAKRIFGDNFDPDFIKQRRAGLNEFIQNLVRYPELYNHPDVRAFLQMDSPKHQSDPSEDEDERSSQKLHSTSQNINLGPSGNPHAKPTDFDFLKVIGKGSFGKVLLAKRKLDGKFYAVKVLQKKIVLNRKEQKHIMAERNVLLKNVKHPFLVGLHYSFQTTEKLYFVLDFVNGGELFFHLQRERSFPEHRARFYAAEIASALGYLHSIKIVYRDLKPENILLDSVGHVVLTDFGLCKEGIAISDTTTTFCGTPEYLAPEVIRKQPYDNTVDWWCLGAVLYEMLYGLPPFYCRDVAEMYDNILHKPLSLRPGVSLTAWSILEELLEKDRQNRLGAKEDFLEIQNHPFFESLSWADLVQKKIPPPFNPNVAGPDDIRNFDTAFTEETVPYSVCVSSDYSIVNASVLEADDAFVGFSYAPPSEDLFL
The series is described as follows: Inhibition of SGK3 in human HeLa cells lysate at 10 uM pre incubated for 15 mins followed by ATP acyl phosphate probe addition and measured after 10 mins by LC-MS/MS analysis relative to control. It is filed as subcellular. The conditions noted are these: time 25.0 min.

A further series deals with RPS6KA1/RPS6KA2/RPS6KA3 (Homo sapiens, UniProt P51812+Q15349+Q15418). The series is described as follows: Inhibition of RSK1/2/3 in human HeLa cells lysate at 50 uM pre incubated for 15 mins followed by ADP acyl phosphate probe addition and measured after 10 mins by LC-MS/MS analysis relative to control. It is filed as subcellular. To be noted: time 25.0 min.
Sequence of RPS6KA1/RPS6KA2/RPS6KA3 (P51812 whole entry, looked up): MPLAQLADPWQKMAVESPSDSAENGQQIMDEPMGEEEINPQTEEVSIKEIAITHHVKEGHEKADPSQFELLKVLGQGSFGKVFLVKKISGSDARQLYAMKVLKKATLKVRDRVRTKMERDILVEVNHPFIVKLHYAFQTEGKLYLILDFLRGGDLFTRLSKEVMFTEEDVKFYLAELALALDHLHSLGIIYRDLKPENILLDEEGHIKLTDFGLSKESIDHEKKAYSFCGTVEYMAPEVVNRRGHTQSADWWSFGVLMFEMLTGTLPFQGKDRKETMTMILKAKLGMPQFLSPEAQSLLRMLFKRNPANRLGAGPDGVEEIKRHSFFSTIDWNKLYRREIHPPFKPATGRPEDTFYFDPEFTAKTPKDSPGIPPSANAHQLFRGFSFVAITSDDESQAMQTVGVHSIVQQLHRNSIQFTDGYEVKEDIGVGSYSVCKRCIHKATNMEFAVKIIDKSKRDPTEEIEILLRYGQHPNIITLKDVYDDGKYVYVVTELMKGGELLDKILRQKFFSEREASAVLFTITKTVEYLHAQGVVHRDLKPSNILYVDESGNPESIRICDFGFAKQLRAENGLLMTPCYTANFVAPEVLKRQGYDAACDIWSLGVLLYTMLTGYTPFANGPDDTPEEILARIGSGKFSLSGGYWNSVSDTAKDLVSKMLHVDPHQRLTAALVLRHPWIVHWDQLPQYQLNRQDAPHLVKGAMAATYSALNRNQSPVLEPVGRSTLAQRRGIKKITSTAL
Sequence of RPS6KA1/RPS6KA2/RPS6KA3 (Q15349 whole entry, looked up): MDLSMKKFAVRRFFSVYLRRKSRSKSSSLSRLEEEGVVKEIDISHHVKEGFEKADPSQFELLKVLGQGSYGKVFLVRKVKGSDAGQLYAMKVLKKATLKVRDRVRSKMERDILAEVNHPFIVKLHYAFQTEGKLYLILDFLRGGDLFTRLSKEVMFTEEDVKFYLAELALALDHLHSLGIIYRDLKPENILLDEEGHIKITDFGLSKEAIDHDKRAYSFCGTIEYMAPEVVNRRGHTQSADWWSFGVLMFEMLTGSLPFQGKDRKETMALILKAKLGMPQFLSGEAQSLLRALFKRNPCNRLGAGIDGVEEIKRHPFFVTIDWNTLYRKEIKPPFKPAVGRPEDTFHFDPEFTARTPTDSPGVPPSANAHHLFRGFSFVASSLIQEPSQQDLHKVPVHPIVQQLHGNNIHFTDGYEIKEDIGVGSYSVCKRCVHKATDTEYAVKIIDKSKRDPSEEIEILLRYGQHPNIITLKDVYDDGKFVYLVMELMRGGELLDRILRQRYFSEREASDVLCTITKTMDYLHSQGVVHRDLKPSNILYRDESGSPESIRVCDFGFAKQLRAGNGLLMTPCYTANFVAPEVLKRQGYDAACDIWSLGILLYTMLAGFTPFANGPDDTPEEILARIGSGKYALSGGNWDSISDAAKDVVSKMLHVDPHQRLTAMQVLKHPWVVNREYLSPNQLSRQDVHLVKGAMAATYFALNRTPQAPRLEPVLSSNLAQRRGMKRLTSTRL
Sequence of RPS6KA1/RPS6KA2/RPS6KA3 (Q15418 whole entry, looked up): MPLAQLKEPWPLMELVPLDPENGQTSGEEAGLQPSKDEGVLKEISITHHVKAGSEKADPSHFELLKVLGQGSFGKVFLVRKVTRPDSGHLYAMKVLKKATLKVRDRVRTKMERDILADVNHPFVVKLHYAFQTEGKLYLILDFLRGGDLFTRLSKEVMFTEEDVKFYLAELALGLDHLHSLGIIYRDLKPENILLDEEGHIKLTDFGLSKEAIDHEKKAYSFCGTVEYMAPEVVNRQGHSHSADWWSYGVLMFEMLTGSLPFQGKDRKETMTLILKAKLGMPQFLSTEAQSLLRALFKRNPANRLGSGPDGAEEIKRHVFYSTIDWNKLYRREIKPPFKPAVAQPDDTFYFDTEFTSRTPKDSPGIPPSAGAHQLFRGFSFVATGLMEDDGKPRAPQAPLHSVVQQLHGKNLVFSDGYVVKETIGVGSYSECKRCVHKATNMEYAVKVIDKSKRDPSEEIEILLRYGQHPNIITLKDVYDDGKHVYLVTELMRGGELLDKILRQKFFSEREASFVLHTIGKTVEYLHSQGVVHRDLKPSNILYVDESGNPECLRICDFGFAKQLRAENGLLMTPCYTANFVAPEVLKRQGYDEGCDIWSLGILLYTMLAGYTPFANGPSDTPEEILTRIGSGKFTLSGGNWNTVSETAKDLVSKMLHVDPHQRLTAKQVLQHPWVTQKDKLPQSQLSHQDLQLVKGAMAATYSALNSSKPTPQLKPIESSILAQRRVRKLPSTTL
The target in series [5] is T3, Serine/threonine-protein kinase Chk1 (Homo sapiens) (UniProt O14757).
T3 sequence (whole entry): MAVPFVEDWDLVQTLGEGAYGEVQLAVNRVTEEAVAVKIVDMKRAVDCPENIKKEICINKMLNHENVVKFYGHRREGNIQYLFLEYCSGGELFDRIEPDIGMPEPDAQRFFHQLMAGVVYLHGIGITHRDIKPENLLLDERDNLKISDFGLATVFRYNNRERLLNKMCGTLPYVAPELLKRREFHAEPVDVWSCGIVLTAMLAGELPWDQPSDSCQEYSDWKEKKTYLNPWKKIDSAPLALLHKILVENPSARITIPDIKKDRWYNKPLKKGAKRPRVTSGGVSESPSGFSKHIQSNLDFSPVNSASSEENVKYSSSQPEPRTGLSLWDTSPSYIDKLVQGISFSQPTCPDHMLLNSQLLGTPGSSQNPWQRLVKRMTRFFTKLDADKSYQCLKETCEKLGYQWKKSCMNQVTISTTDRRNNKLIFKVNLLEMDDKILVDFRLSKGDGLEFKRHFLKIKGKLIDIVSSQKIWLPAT
Briefly: Inhibition of CHK1 in human HeLa cells lysate at 2 uM pre incubated for 15 mins followed by ATP acyl phosphate probe addition and measured after 10 mins by LC-MS/MS analysis relative to control. The format is subcellular. The conditions noted are these: time 25.0 min.

Series [6] addresses T4, Serine/threonine-protein kinase Nek9 (Homo sapiens) (UniProt Q8TD19).
T4 sequence (whole entry): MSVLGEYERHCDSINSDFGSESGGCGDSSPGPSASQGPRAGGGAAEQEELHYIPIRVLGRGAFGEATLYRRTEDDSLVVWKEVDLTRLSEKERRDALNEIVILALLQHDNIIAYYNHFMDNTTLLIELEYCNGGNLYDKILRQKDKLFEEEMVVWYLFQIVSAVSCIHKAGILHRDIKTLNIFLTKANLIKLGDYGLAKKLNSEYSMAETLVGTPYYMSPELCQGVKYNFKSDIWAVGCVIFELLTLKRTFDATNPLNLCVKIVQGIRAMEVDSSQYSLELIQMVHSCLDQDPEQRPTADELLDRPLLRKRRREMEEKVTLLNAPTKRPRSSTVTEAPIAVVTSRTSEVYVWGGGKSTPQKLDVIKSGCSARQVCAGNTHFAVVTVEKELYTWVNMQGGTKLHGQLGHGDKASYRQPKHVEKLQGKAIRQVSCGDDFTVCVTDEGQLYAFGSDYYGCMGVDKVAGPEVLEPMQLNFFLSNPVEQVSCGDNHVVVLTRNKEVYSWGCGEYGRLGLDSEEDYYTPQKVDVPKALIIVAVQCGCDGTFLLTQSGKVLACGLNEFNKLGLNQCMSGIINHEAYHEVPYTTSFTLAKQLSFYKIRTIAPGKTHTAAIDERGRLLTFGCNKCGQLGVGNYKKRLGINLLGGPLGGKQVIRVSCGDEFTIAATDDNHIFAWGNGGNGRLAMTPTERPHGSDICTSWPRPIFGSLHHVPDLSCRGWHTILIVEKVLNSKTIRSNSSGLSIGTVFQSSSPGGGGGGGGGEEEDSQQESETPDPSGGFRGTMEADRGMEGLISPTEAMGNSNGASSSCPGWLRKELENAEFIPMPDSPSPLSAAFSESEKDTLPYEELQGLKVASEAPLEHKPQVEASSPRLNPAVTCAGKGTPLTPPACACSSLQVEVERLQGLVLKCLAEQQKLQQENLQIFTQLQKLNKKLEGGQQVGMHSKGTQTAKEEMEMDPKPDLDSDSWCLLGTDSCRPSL
Briefly: Inhibition of NEK9 in human HeLa cells lysate at 2 uM pre incubated for 15 mins followed by ATP acyl phosphate probe addition and measured after 10 mins by LC-MS/MS analysis relative to control. The conditions noted are these: time 25.0 min. It is filed as subcellular.

Sequence of Serine/threonine-protein kinase ULK2 (Homo sapiens) (Q8IYT8 whole entry): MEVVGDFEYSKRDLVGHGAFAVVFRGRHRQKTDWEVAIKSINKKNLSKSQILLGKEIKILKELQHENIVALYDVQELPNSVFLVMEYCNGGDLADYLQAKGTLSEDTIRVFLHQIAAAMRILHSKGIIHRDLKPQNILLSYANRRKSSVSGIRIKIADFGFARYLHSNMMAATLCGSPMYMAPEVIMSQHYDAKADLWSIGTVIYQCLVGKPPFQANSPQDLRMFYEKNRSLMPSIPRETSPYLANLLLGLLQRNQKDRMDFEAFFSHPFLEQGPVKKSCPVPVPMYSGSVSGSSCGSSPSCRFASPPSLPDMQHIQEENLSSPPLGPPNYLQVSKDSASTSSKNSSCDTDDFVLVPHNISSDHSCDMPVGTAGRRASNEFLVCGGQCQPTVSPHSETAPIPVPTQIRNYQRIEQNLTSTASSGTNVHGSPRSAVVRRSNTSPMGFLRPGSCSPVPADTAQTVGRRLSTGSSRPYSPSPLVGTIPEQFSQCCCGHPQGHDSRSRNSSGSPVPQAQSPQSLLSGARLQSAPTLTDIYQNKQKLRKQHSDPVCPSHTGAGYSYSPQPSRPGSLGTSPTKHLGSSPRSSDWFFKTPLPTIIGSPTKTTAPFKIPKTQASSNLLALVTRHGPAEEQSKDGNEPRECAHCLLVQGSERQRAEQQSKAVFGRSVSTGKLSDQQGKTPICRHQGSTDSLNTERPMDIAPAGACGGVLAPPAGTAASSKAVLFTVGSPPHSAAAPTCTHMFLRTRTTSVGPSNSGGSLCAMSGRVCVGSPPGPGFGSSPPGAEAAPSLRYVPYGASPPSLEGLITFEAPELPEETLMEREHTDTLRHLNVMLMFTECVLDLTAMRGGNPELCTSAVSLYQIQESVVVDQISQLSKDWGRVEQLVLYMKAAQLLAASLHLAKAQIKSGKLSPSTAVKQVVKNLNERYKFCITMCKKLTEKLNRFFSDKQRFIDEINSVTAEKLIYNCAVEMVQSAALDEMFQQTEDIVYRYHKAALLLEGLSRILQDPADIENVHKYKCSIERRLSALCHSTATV

`CCOc1cc(N2CCC(O)CC2)ccc1Nc1ncc2c(n1)N(C)c1ccccc1C(=O)N2C`: the inhibition was 7.3% in series [1]; 13.5% in series [3]; 4.4% in series [4]; -2.1% at RPS6KA1/RPS6KA2/RPS6KA3; 5.4% in series [5]; 3% in series [6]. For the same compound, in series [2], the concentration at 312 h was found to be 11.1 µM.

What is called inhibition is the change of the read-out against control, counted positive when it falls.
